From ChEMBL document CHEMBL4513134, “CO-ADD screening of University of Queensland (Australia) compounds” (2021)
Values after ≈ are worked out from the molar mass of the structure shown.

Columns and labels:
[1] = tested on: HEK293; test: cells; assay type: functional, Homo sapiens, ATCC CRL1573; conditions: ASSAY_TEST Inhibition of Cell Viability; detection method Resazurin; Fluorescence (ex560/em590); MEDIA DMEM with 10% FBS; plate type 384well; TC; CORNING #3712; time 18 hr
[2] = tested on: Acinetobacter baumannii; test: Antibacterial activity against Acinetobacter baumannii ATCC 19606 (CO-ADD:GN_034); MIC in CAMBH media using NBS plates, by OD600; conditions: Concentration 32.0 ug.mL-1
[3] = tested on: Staphylococcus aureus; test: Antibacterial activity against Staphylococcus aureus MRSA ATCC 43300 (CO-ADD:GP_020); MIC in CAMBH media, using NBS plates, by OD(600); conditions: Concentration 32.0 ug.mL-1
[4] = tested on: Escherichia coli; test: Antibacterial activity against Escherichia coli ATCC 25922 (CO-ADD:GN_001); MIC in CAMBH media using NBS plates, by OD(600); conditions: Concentration 32.0 ug.mL-1
[5] = tested on: Klebsiella pneumoniae; conditions: ATCC 700603, Concentration 32.0 ug.mL-1
Description: Antibacterial activity against Klebsiella pneumoniae MDR ATCC 70063 (CO-ADD:GN_003); MIC in CAMBH media using NBS plates, by OD(600)

[6] = tested on: Pseudomonas aeruginosa; conditions: ATCC 27853, Concentration 32.0 ug.mL-1
Description: Antibacterial activity against Pseudomonas aeruginosa ATCC 27853 (CO-ADD:GN_042); MIC in CAMBH media using NBS plates, by OD(600)

[7] = tested on: Staphylococcus aureus; test: microbe, parasite or virus in culture; conditions: ATCC 43300, 18 h, ASSAY_TEST Inhibition of Bacterial Growth, detection method Absorption (OD600), MEDIA CAMHB, plate type 384well, NBS, CORNING #3640

Row | SMILES | CC50 [1] | inhibition [2] | inhibition [3] | inhibition [4] | inhibition [5] | inhibition [6] | MIC [7] [µg/mL]
1 | NNC(=O)c1nc([N+](=O)[O-])cn1Cc1ccc(OC(F)(F)F)cc1 | >100 |  |  |  |  |  | 
2 | O=C(NC1CC1)c1ncc([N+](=O)[O-])[nH]1 |  | Average; N=2 | Average; N=2 | Average; N=2 | Average; N=2 | Average; N=2 | 
3 | NC(=O)c1ncc([N+](=O)[O-])[nH]1 |  | Average; N=2 | Average; N=2 | Average; N=2 | Average; N=2 | Average; N=2 | 
4 | O=c1[nH]c(-c2ccc(OC(F)(F)F)cc2)cn2cc([N+](=O)[O-])nc12 | >100 |  |  |  |  |  | 
5 | NC(=O)c1nc([N+](=O)[O-])cn1Cc1cccc(OC(F)(F)F)c1 |  | Average; N=2 | Average; N=2 | Average; N=2 | Average; N=2 | Average; N=2 | 
6 | O=C(O)C(F)(F)F.O=c1nc(N2CCN(CC3CCCCC3)CC2)sc2c([N+](=O)[O-])cc(C(F)(F)F)cc12 | >50 |  |  |  |  |  | 
7 | CS(=O)(=O)c1ccc(CNC(=O)c2ncc([N+](=O)[O-])[nH]2)cc1 |  | Average; N=2 | Average; N=2 | Average; N=2 | Average; N=2 | Average; N=2 | 
8 | NC(=O)c1nc([N+](=O)[O-])cn1CCO | >100 |  |  |  |  |  | 
9 | CN(C)C(=O)c1ncc([N+](=O)[O-])[nH]1 |  | Average; N=2 | Average; N=2 | Average; N=2 | Average; N=2 | Average; N=2 | 
10 | Cc1cn2cc([N+](=O)[O-])nc2c(=O)n1Cc1ccc(OC(F)(F)F)cc1 | >100 |  |  |  |  |  | 
11 | Cc1[nH]c(=O)c2nc([N+](=O)[O-])cn2c1C | >100 |  |  |  |  |  | 
12 | NC(=O)c1nc([N+](=O)[O-])cn1CCc1ccc(OC(F)(F)F)cc1 |  | Average; N=2 | Average; N=2 | Average; N=2 | Average; N=2 | Average; N=2 | 
13 | C[C@H]1COC2(CCN(c3nc(=O)c4cc(C(F)(F)F)cc([N+](=O)[O-])c4s3)CC2)O1 [BTZ-043] | >100 |  |  |  |  |  | 
14 | CN(C)C(=O)c1nc([N+](=O)[O-])cn1Cc1ccc(OC(F)(F)F)cc1 | >100 |  |  |  |  |  | 
15 | O=C(NCCO)c1ncc([N+](=O)[O-])[nH]1 |  | Average; N=2 | Average; N=2 | Average; N=2 | Average; N=2 | Average; N=2 | 
16 | NC(=O)c1nc([N+](=O)[O-])cn1Cc1ccc(C(F)(F)F)cc1 |  | Average; N=2 | Average; N=2 | Average; N=2 | Average; N=2 | Average; N=2 | 
17 | O=C(c1ncc([N+](=O)[O-])[nH]1)N1CCOCC1 |  | Average; N=2 | Average; N=2 | Average; N=2 | Average; N=2 | Average; N=2 | 
18 | NC(=O)c1nc([N+](=O)[O-])cn1Cc1ccccn1 |  | Average; N=2 | Average; N=2 | Average; N=2 | Average; N=2 | Average; N=2 | 
19 | Cc1cn2cc([N+](=O)[O-])nc2c(OCc2ccc(OC(F)(F)F)cc2)n1 | >100 |  |  |  |  |  | 
20 | O=C(NCc1cccc(OC(F)(F)F)c1)c1ncc([N+](=O)[O-])[nH]1 |  |  |  |  |  |  | 16 (≈ 48.5 µM)
21 | NC(=O)c1nc([N+](=O)[O-])cn1Cc1ccc(F)cc1 |  | Average; N=2 | Average; N=2 | Average; N=2 | Average; N=2 | Average; N=2 | 
22 | CN(CCOC(=O)c1ncc([N+](=O)[O-])[nH]1)C(=O)c1ncc([N+](=O)[O-])[nH]1 |  | Average; N=2 | Average; N=2 | Average; N=2 | Average; N=2 | Average; N=2 | 
23 | Cc1ccc(CCNC(=O)c2ncc([N+](=O)[O-])[nH]2)cc1 |  |  |  |  |  |  | 32 (≈ 117 µM)
24 | CCOC(=O)c1nc([N+](=O)[O-])cn1Cc1ccc(OC(F)(F)F)cc1 | >100 |  |  |  |  |  | 
25 | CN(CCO)C(=O)c1ncc([N+](=O)[O-])[nH]1 |  | Average; N=2 | Average; N=2 | Average; N=2 | Average; N=2 | Average; N=2 | 
26 | Cc1nc(OCc2ccc(OC(F)(F)F)cc2)c2nc([N+](=O)[O-])cn2c1C | >100 |  |  |  |  |  | 

Row | SMILES | CC50 [1] | inhibition [2] | inhibition [3] | inhibition [4] | inhibition [5] | inhibition [6] | MIC [7] [µg/mL]
27 | Cc1ccc(CNC(=O)c2nc([N+](=O)[O-])c[nH]2)cc1 |  |  |  |  |  |  | 32 (≈ 123 µM)
28 | CC(=O)OCCOc1nc(C)cn2cc([N+](=O)[O-])nc12 | >100 |  |  |  |  |  | 
29 | NC(=O)c1nc([N+](=O)[O-])cn1CC1CCCCC1 |  | Average; N=2 | Average; N=2 | Average; N=2 | Average; N=2 | Average; N=2 | 
30 | O=C(c1ncc([N+](=O)[O-])[nH]1)N1CCCC1 |  | Average; N=2 | Average; N=2 | Average; N=2 | Average; N=2 | Average; N=2 | 
31 | O=C(NCc1ccc(OC(F)(F)F)cc1)c1ncc([N+](=O)[O-])[nH]1 |  | Average; N=2 | Average; N=2 | Average; N=2 | Average; N=2 | Average; N=2 | 
32 | O=[N+]([O-])c1cn2ccnc(OCCc3ccc(OC(F)(F)F)cc3)c2n1 | >100 |  |  |  |  |  | 
33 | CC(=O)OCCn1cc([N+](=O)[O-])nc1C(N)=O |  | Average; N=2 | Average; N=2 | Average; N=2 | Average; N=2 | Average; N=2 | 
34 | O=C(NO)c1nc([N+](=O)[O-])cn1Cc1ccc(OC(F)(F)F)cc1 | 36 |  |  |  |  |  | 
35 | [N-]=[N+]=NCCOc1nc(-c2ccccc2)cn2cc([N+](=O)[O-])nc12 |  | Average; N=2 | Average; N=2 | Average; N=2 | Average; N=2 | Average; N=2 | 
36 | CNC(=O)c1ncc([N+](=O)[O-])[nH]1 |  | Average; N=2 | Average; N=2 | Average; N=2 | Average; N=2 | Average; N=2 | 
37 | Cc1c(C)n2cc([N+](=O)[O-])nc2c(=O)n1Cc1ccc(OC(F)(F)F)cc1 | >100 |  |  |  |  |  | 
38 | COc1nc(C)cn2cc([N+](=O)[O-])nc12 | >50 |  |  |  |  |  | 
39 | O=C(NCc1ccccn1)c1ncc([N+](=O)[O-])[nH]1 |  | Average; N=2 | Average; N=2 | Average; N=2 | Average; N=2 | Average; N=2 | 
40 | CC(NC(=O)c1ncc([N+](=O)[O-])[nH]1)c1ccc(F)cc1 (stereo unspecified) |  | Average; N=2 | Average; N=2 | Average; N=2 | Average; N=2 | Average; N=2 | 
41 | CC(=O)OCCn1c(C)cn2cc([N+](=O)[O-])nc2c1=O | >100 |  |  |  |  |  | 
42 | Cc1cn2cc([N+](=O)[O-])nc2c(OCCO)n1 | >100 |  |  |  |  |  | 
43 | Nc1c[nH]c(C(=O)NCc2ccc(F)cc2)n1 |  | Average; N=2 | Average; N=2 | Average; N=2 | Average; N=2 | Average; N=2 | 
44 | CC(=O)OCCn1c(-c2ccccc2)cn2cc([N+](=O)[O-])nc2c1=O |  | Average; N=2 | Average; N=2 | Average; N=2 | Average; N=2 | Average; N=2 | 
45 | O=C(NCc1ccccc1)c1nc([N+](=O)[O-])c[nH]1 |  | Average; N=2 | Average; N=2 | Average; N=2 | Average; N=2 | Average; N=2 | 
46 | O=C(NC1CCCCC1)c1ncc([N+](=O)[O-])[nH]1 |  | Average; N=2 | Average; N=2 | Average; N=2 | Average; N=2 | Average; N=2 | 
47 | Cc1ccc(CCn2cc([N+](=O)[O-])nc2C(N)=O)cc1 |  | Average; N=2 | Average; N=2 | Average; N=2 | Average; N=2 | Average; N=2 | 
48 | CCOC(=O)c1nc([N+](=O)[O-])c[nH]1 | >100 |  |  |  |  |  | 
49 | CN(Cc1ccc(OC(F)F)cc1)C(=O)c1ncc([N+](=O)[O-])[nH]1 |  |  |  |  |  |  | 16 (≈ 49 µM)
50 | Cc1cn2cc([N+](=O)[O-])nc2c(=O)[nH]1 | >100 |  |  |  |  |  | 
51 | Cc1cn2cc([N+](=O)[O-])nc2c(=O)n1CCO | >100 |  |  |  |  |  | 
52 | CNC(=O)c1nc([N+](=O)[O-])cn1Cc1ccc(OC(F)(F)F)cc1 | >100 |  |  |  |  |  | 
